Read-outs that look alike come from different tables or passages of the source.
What was measured:
[1] = cited from earlier work; for major side effect of use in incontinence (blood pressure): dose-dependent; for major side effect of use in incontinence (blood pressure) / CNS side effects in some patients: Andersson and Sjogren, 1982; for CNS side effects in some patients: stimulant actions in the CNS, Wein, 1987
[2] = target: T1, human α1B adrenoceptor (Homo sapiens, UniProt P35368); assay: Radioligand binding ([3H]prazosin) at cloned human α1B
T1 construct: The entire coding region of the α1B receptor (1563 bp); expressed in transfected cells
T1 sequence (P35368 1-520): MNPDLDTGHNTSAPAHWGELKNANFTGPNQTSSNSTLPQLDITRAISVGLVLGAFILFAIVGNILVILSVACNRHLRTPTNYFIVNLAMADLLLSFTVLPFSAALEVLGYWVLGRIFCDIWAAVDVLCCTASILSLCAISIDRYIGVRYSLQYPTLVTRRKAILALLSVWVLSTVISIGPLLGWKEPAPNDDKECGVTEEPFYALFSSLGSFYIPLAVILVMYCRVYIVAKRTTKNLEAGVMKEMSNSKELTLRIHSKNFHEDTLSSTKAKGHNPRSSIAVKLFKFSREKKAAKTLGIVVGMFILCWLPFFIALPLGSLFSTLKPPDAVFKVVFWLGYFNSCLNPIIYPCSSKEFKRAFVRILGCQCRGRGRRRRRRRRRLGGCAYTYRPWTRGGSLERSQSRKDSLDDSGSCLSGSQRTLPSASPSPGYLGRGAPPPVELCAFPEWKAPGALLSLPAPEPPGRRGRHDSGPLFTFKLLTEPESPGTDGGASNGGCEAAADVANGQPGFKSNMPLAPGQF
Procedure: (§1) These cell lines were prepared by transfecting the cloned cDNA or cloned genomic DNA or constructs containing both genomic DNA and cDNA encoding the human α-adrenoceptors as follows:
The construct involved ligating the full-length containing EcoRI brainstem cDNA fragment from λ ZapII into the expression vector. Stable cell lines were obtained as described above.
(§2) Transfected cells from culture flasks were scraped into 5 ml of 5 mM Tris-HCl, 5 mM EDTA, pH 7.5, and lysed by sonication. The cell lysates were centrifuged at 1000 rpm. for 5 min at 4° C., and the supernatant was centrifuged at 30,000 ×g for 20 min at 4° C. The pellet was suspended in 50 mM Tris-HCl , 1 mM MgCl2, and 0.1% ascorbic acid at pH 7.5. […] The reaction was stopped by filtration through GF/B filters using a cell harvester.

[3] = target: T2, human urethra (α1-adrenoceptor) (Homo sapiens, UniProt P35348); assay: Contractile study in isolated human male urethra
T2 construct: Tissue samples from the proximal urethra of male humans; from tissue; host or cells: human male proximal urethra strips
T2 sequence (P35348 1-466): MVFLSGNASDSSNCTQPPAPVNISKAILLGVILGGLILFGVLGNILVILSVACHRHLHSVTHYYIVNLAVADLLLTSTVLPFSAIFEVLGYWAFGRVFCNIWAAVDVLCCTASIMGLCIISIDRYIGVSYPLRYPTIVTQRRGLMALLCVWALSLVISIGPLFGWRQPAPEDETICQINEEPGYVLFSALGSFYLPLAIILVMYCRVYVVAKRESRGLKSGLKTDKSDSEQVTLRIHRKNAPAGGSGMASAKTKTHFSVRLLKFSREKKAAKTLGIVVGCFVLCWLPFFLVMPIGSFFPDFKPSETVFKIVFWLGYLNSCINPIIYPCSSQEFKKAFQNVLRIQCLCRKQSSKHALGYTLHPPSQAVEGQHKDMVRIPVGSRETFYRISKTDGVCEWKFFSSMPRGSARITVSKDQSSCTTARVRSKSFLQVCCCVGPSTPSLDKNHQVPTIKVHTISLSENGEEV
From the text: (§3) In addition, similar studies were done using bladder neck tissue from female dogs. In order to identify the specific receptor subtype in each tissue, the pharmacological profile was compared to the profiles for these same drugs at the cloned human α1A, α1B, or α1C subtypes.
(§4) Tissue samples from the proximal urethra of male humans and male and female rabbits, as well as tissue samples from both the proximal urethra and bladder neck of male and female dogs were cut into transverse strips (3×10 mm) and suspended under 0.5 g tension in Krebs' physiological buffer at 37° C. To determine agonist potency (pEC50 )and antagonist affinity constants (pKB), concentration-effect curves to the non-selective agonist phenylepherine were constructed in the absence and in the presence of increasing concentrations of the antagonist. Up to four sequential curves were constructed in each tissue. Antagonists were allowed to equilibrate for 1h before each concentration-effect curve, and the drugs were completely washed out in between successive curves. In each experiment, one tissue served as a "time control", in which no antagonist was added so that changes in tissue sensitivity could be assessed as a function of time. […] In instances in which a single concentration of antagonist was used, pKB values were determined by the equation: […], where CR is defined as the ratio of the agonist EC50 in the presence of the antagonist to that in the absence of the antagonist.

[4] = target: T3, human α1C adrenoceptor (Homo sapiens, UniProt P35348); assay: biochemical; type: binding
T3 sequence (P35348 1-466): T2 sequence (P35348 1-466)
Procedure: as §1
The construct involved ligating three partial overlapping fragments: a 5' 0.6 kb HincII genomic clone, a central 1.8 EcoRI hippocampal cDNA clone, and a 3' 0.6 Kb PstI genomic clone. The hippocampal cDNA fragment overlaps with the 5' and 3' genomic clones so that the HincII and PstI sites at the 5' and 3' ends of the cDNA clone, respectively, were utilized for ligation. This full-length clone was cloned into the KpnI site of the expression vector, using the 5' and 3' KpnI sites of the fragment, derived from vector (i.e., pBluescript) and 3'-untranslated sequences, respectively. Stable cell lines were obtained as described above.
as §2

[5] = target: T4, dog BN, male (α1-adrenoceptor) (Canis lupus, UniProt A0A8I3NK63); assay: Contractile study in isolated male dog bladder neck; conditions: versus phenylephrine-induced contraction
T4 sequence (A0A8I3NK63 1-466): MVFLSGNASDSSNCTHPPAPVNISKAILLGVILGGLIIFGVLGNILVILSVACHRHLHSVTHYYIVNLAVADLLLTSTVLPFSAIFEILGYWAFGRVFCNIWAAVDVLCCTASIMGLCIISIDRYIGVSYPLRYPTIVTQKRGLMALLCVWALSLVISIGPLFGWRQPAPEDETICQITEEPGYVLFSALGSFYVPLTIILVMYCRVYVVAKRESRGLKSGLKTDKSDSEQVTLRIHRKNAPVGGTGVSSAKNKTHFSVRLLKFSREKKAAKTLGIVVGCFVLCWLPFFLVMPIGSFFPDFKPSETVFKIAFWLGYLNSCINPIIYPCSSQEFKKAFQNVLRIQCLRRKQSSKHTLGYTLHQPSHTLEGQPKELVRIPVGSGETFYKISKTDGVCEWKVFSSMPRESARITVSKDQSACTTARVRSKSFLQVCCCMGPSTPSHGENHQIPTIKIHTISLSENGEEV
From the text: as §3, §4

[6] = target: T5, human α1A adrenoceptor (Homo sapiens, UniProt P25100); assay: biochemical; type: binding
T5 sequence (P25100 1-572): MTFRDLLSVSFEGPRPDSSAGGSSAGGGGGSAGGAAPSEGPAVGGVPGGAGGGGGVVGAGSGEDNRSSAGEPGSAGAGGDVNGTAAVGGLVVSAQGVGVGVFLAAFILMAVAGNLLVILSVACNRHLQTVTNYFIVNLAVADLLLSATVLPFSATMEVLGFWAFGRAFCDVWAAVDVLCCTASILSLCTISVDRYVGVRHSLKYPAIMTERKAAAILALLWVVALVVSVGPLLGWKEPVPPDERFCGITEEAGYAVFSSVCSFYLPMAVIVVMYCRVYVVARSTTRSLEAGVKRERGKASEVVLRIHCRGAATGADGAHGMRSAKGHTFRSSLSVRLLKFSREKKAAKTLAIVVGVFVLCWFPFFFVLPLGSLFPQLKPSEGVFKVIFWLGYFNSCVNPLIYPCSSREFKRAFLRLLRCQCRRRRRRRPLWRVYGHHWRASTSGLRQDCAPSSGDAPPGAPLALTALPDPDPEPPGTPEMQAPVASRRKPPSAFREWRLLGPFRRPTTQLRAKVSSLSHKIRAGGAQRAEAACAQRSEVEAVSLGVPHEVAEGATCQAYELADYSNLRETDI
Procedure: as §1
The cells were grown, in a controlled environment (37° C., 5% CO2), as monolayers in Dulbecco's modified Eagle's Medium (GIBCO, Grand Island, N.Y.) containing 25 mM glucose and supplemented with 10% bovine calf serum, 100 units/ml penicillin g, and 100 μg/ml streptomycin sulfate.
as §2

[7] = target: T6, rabbit urethra, female (α1-adrenoceptor) (Oryctolagus cuniculus, UniProt O02824); assay: Contractile study in isolated female rabbit urethra; conditions: versus phenylephrine-induced contraction; read-out: pKB Rabbit Urethra Female (converted)
T6 construct: proximal urethra of male humans and male and female rabbits; from tissue; host or cells: rabbit proximal urethra strips, male or female
T6 sequence (O02824 1-466): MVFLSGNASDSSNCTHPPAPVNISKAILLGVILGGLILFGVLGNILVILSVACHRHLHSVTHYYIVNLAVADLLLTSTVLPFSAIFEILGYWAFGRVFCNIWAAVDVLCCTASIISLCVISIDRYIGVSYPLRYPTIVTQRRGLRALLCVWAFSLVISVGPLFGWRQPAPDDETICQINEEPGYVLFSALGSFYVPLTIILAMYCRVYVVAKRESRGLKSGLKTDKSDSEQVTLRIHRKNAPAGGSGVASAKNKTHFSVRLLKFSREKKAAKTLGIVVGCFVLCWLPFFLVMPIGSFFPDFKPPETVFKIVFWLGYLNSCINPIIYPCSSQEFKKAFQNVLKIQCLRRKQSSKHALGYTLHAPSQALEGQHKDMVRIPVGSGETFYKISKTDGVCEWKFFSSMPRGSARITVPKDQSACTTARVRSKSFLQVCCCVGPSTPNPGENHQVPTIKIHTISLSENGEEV
From the text: as §3, §4

[8] = target: T7, rabbit urethra, male (α1-adrenoceptor) (Oryctolagus cuniculus, UniProt O02824); assay: Contractile study in isolated male rabbit urethra; conditions: versus phenylephrine-induced contraction
T7 sequence (O02824 1-466): T6 sequence (O02824 1-466)
From the text: as §3, §4

[9] = target: T8, dog BN, female (α1-adrenoceptor) (Canis lupus, UniProt A0A8I3NK63); assay: Contractile study in isolated female dog bladder neck; conditions: versus phenylephrine-induced contraction
T8 sequence (A0A8I3NK63 1-466): T4 sequence (A0A8I3NK63 1-466)
From the text: as §3, §4

[10] = Andersson and Sjogren, 1982; cited from earlier work
[11] = prodrug; cited from earlier work

CN[C@@H](C)[C@H](O)c1ccccc1 [ephedrine]
major side effect of use in incontinence (blood pressure) [1]: increase in blood pressure | CNS side effects in some patients [1]: insomnia, anxiety and dizziness

CC(N)C(O)c1ccccc1 (stereo not drawn) [phenylpropanolamine]
major side effect of use in incontinence (blood pressure) [1]: increase in blood pressure | CNS side effects in some patients [1]: insomnia, anxiety and dizziness

COC(=O)C1=C(C)NC(C)=C(C(=O)OCCCN2CCC(c3ccccc3)(c3ccccc3)CC2)C1c1ccc([N+](=O)[O-])cc1.Cl (racemic) [Compound 1, (±)-2,6-Dimethyl-4-(4-nitrophenyl)-1,4-dihydro-pyridine-3,5-dicarboxylicacid [3-(4,4-diphenylpiperidin-1-yl)propyl]ester methyl ester hydrochloride]
Ki [2]: 0.0794 µM | Kb [3]: 0.00794 µM | Ki [4]: 0.00316 µM | pKB Dog BN Male [5]: 6.2 | Ki [6]: 0.316 µM

COc1ccccc1N1CCN(CCN2C(=O)CC3(CCCC3)CC2=O)CC1 [BMY 7378]
Kb [7]: 0.794 µM | Ki ([2]; Table 2, antagonists, versus 3H-prazosin, read-out: pKI (antagonist affinity, 3H-prazosin binding) hα1B (converted)): 0.1 µM | pKB Rabbit Urethra Male [8]: 6.5 | pKB Dog BN Female [9]: 6.8 | pKB Dog BN Male [5]: 7.1

COc1ccc(OC)c(C(O)CNC(=O)CN)c1 (stereo not drawn) [midodrine]
clinical efficacy in urinary incontinence [10]: has not been demonstrated conclusively | in vivo conversion to active phenylethylamine [11]: converted in vivo to the active phenylethylamine ST-1059

Clc1cccc(Cl)c1N=C1NCCN1 [clonidine]
undesirable side effects at therapeutic doses ([1]; in addition to antihypertensive effect): dry mouth, sedation and orthostatic hypotension

CNC[C@H](O)c1cccc(O)c1 [phenylephrine]
major side effect of use in incontinence (blood pressure) [1]: increase in blood pressure

— patent publication US5610174A, “Use of α1A -selective adrenoceptor agonists for the treatment of urinary incontinence” (priority 1995, dated 1997)
